From BindingDB's records for doi:10.1016/j.bmcl.2010.01.018 (Schering-Plough Research Institute, 2010)

Experiment: Inhibition of Aurora 2 kinase

## COc1c(O)cc2c3c(cc4ccc(O)cc4c13)NC2=O [aristololactam A IIIa]
  IC50: 2140 nM
